Each block holds one compound with its values, some of them ahead of it.
Tests used:
[1] = system: Boophilus microplus; experiment: Boophilus microplus test (BOOPMI injection); type: in vivo; details: 20 μg/animal, injected into the abdomen, after 7 days
Outline: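 Compound dissolved in DMSO, diluted with water and injected into the tick abdomen; ticks kept in a climatized room. Fertile egg deposition assessed after 7 days; 100% means no tick laid fertile eggs.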

[2] = system: Lucilia cuprina larvae; experiment: Lucilia cuprina test (LUCICU); type: in vivo; details: 100 ppm, treated horse meat, after 2 days
Outline: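 Horse meat treated with compound diluted in water from DMSO concentrate, then populated with larvae. Mortality scored after 2 days as percent kill, 100% meaning all larvae dead.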

[3] = system: larvae of the mustard beetle (Phaedon cochleariae); experiment: Phaedon test (PHAECO spray treatment); type: in vivo; details: 100 g/ha, after 7 days
Outline: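 Chinese cabbage leaf discs were sprayed with compound formulated in acetone/dimethyl formamide plus alkylaryl polyglycol ether emulsifier, diluted in emulsifier-containing water to the desired concentration. After drying, discs were infested with mustard beetle larvae. Mortality (%) was scored after 7 days, where 100% means all larvae killed.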

[4] = system: caterpillars of the army worm (Spodoptera frugiperda); experiment: Spodoptera frugiperda test (SPODFR spray treatment); type: in vivo; details: 100 g/ha, after 7 days
Outline: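 Maize leaf discs sprayed with compound in acetone/DMF with alkylaryl polyglycol ether emulsifier, diluted in emulsifier-containing water to the test concentration. Once dry, discs were infested with army worm caterpillars. Mortality scored after 7 days as % activity (100% = all caterpillars killed).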

[5] = system: green peach affid (Myzus persicae); experiment: Myzus test (MYZUPE spray treatment); type: in vivo; details: 100 g/ha, after 6 days
Method: Solvents: 78 parts by weight of acetone
• 1.5 parts by weight of dimethyl formamide Emulsifier: 0.5 part by weight of alkylaryl polyglycol ether
To produce a suitable preparation of active compound, 1 part by weight of active compound is mixed with the stated amounts of solvent and emulsifier, and the concentrate is diluted with emulsifier-containing water to the desired concentration.
Discs of Chinese cabbage leaves (Brassica pekinensis) infested by all stages of the green peach affid (Myzus persicae) are sprayed with an active compound preparation of the desired concentration.
After 6 days, the activity in % is determined. 100% means that all affids have been killed; 0% means that none of the affids have been killed.

[6] = system: adult Musca domestica; experiment: Musca domestica test (MUSCDO); type: in vivo; details: 100 ppm, treated sponge
Outline: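 Compound taken up in DMSO and diluted with water to test concentration, applied to a sponge in vessels then stocked with adult houseflies. Kill % scored after the set period; 100% = all flies dead, 0% = none.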

[7] = logP by HPLC on reversed-phase columns (C 18), EU Guideline 79/831 Annex V.A8; type: physicochemical
[8] = system: Ctenocephalides felis; experiment: Ctenocephalides felis oral (CTECFE); type: in vivo; details: 100 ppm in citrated cattle blood, after 2 days
Outline: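 Twenty unfed adult fleas fed through parafilm on citrated cattle blood containing compound, diluted from a DMSO concentrate (10 mg per 0.5 ml). Kill % scored after 2 days (100% = all dead, 0% = none).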

[9] = system: greenhouse red spider mite (Tetranychus urticae); experiment: Tetranychus test, OP resistant (TETRUR spray treatment); type: in vivo; details: 100 g/ha, after 6 days
Method: Solvents: 78.0 parts by weight of acetone • • 1.5 parts by weight of dimethyl formamide Emulsifier: 0.5 part by weight of alkylaryl polyglycol ether To produce a suitable preparation of active compound, 1 part by weight of active compound is mixed with the stated amounts of solvent and emulsifier, and the concentrate is diluted with emulsifier-containing water to the desired concentration. Discs of bean leaves (Phaseolus vulgaris) which are infested by all stages of the greenhouse red spider mite (Tetranychus urticae) are sprayed with an active compound preparation of the desired concentration. After 6 days, the activity in % is determined. 100% means that all spider mites have been killed; 0% means that none of the spider mites has been killed. The test was carried out and evaluated as described in Example B.7.

[10] = system: Boophilus microplus strain Parkhurst (SP-resistant); experiment: Boophilus microplus test (DIP); type: in vivo; details: 100 ppm
Method: Test animals: adult fed females of the Boophilus microplus strain Parkhurst (SP-resistant)
Solvent: Dimethyl sulphoxide
10 mg of active compound are dissolved in 0.5 ml of dimethyl sulphoxide. To produce a suitable formulation, the active compound solution is diluted with water to the particular desired concentration. This active compound preparation is pipetted into tubes. 8-10 ticks are transferred into a further tube provided with holes. The tube is dipped into the active compound preparation, with all ticks being wetted completely. After the liquid has run off, the ticks are transferred to filter discs in plastic dishes and kept in a climatized room. After the desired period of time, the activity is checked for deposition of fertile eggs. Eggs whose fertility is not visible from the outside are kept in glass tubes in a climatized cupboard under the larvae have hatched. An activity of 100% means that no tick has laid fertile eggs.

[11] = ** LC-MS in the neutral range, pH 7.8, 0.001 molar aqueous ammonium bicarbonate and acetonitrile

logP ([7]; * LC-MS in the acidic range, pH 2.7, 0.1% aqueous formic acid and acetonitrile): 4.61*
logP [7, 11]: 4.58**;
Structure (SMILES): CCOC=Nc1c(-c2cc(Cl)cc(C(F)(F)F)c2)c(C(F)(F)F)nn1-c1ncccn1 [Example 1-11]
activity (no deposition of fertile eggs) [1]: 100%
kill [2]: 100%
activity (beetle larvae killed) [3]: 100%
activity (caterpillars killed) [4]: 100%
activity (affids killed) [5]: 90%
kill [6]: 80%

Structure (SMILES): CCCCOC=Nc1c(-c2cc(Cl)cc(C(F)(F)F)c2)c(C(F)(F)F)nn1-c1ncccn1 [Example 1-15]
activity (no deposition of fertile eggs) [1]: 100%
kill [8]: 100%
kill [2]: 100%
activity (beetle larvae killed) [3]: 100%
activity (caterpillars killed) [4]: 100%
activity (affids killed) [5]: 80%
activity (spider mites killed) [9]: 100%
kill [6]: 80%
logP [7, 11]: 5.24**

Structure (SMILES): CCOC=Nc1c(-c2cc(Cl)cc(C(F)(F)F)c2)c(C(F)(F)C(F)F)nn1-c1ncccn1 [Example 1-34]
activity (no deposition of fertile eggs) [1]: 100%
kill [8]: 80%
kill [2]: 100%
activity (beetle larvae killed) [3]: 100%
activity (caterpillars killed) [4]: 100%
activity (affids killed) [5]: 90%
activity (spider mites killed) [9]: 100%
kill [6]: 100%
logP [7, 11]: 4.43**

Structure (SMILES): CCOC=Nc1c(-c2cc(Cl)cc(C(F)(F)F)c2)c(C(F)(F)C(F)(F)F)nn1-c1ncccn1 [Example 1-43]
activity (beetle larvae killed) [3]: 100%
activity (caterpillars killed) [4]: 100%
activity (affids killed) [5]: 100%
activity (spider mites killed) [9]: 100%
logP [7, 11]: 5.02**

Structure (SMILES): CCOC=Nc1c(-c2cc(Cl)c3c(c2)OCO3)c(C(F)(F)F)nn1-c1nccnc1OC [Example 2-18]
activity (no deposition of fertile eggs) [1]: 100%
kill [8]: 100%
kill [2]: 100%
activity (beetle larvae killed) [3]: 100%
activity (caterpillars killed) [4]: 100%
activity (affids killed) [5]: 100%
activity (spider mites killed) [9]: 100%
activity (no deposition of fertile eggs) [10]: 100%
logP [7, 11]: 4.03**

From patent publication US8629273B2, “Diazinylpyrazolyl compounds” (Bayer Intellectual Property GmbH, priority 2009, dated 2014)
